Data reported in article PMC4420865 (Journal of Cerebral Blood Flow & Metabolism, 2015).

Columns and labels:
[1] = Tariquidar plasma concentrations during PET scan 2; assay type: in vivo, human
[2] = molecular target: human Pgp (Homo sapiens, UniProt P08183); assay: Inhibition of transport of [^3H]verapamil by human Pgp; assay type: biochemical
[3] = Adverse reactions during tariquidar infusion; assay type: in vivo, human
[4] = cited from earlier work
[5] = system: Pgp at the human BBB; conditions: cited from earlier work
[6] = system: Pgp at the human BBB; conditions: humans, tariquidar 6 mg/kg body weight; cited from earlier work

Chain of human Pgp (P08183 whole entry, the tested form may be a part): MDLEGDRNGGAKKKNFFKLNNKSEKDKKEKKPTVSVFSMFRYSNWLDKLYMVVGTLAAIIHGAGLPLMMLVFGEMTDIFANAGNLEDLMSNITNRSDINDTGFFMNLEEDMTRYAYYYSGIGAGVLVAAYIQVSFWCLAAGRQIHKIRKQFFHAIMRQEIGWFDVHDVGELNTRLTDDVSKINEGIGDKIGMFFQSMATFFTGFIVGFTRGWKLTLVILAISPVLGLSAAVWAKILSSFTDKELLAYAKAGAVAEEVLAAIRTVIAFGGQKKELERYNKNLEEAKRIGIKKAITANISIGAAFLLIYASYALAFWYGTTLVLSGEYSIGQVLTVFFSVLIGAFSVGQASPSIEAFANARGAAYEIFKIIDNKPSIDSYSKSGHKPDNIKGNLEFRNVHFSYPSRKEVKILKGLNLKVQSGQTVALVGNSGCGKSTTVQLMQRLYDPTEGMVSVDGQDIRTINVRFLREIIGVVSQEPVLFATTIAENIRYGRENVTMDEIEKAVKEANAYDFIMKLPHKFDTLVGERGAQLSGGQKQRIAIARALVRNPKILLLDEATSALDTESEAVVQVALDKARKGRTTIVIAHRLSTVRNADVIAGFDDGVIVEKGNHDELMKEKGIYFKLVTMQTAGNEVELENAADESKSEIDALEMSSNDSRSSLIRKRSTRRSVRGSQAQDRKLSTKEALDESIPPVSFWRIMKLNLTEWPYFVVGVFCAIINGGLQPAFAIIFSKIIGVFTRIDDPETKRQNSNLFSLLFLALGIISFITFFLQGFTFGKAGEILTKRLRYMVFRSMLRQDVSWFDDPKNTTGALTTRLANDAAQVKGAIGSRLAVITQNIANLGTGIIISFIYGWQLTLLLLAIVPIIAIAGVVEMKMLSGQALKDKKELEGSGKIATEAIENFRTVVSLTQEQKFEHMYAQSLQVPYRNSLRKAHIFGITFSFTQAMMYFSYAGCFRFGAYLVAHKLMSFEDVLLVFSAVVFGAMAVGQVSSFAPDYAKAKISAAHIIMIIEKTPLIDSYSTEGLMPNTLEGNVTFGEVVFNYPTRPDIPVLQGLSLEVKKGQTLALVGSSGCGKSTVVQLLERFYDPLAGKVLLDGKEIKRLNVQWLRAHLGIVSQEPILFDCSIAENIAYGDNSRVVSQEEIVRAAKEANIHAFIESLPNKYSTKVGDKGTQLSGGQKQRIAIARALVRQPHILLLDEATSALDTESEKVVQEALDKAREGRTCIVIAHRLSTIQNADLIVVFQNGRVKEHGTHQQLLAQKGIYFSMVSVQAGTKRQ

COc1cc2c(cc1OC)CN(CCc1ccc(NC(=O)c3cc(OC)c(OC)cc3NC(=O)c3cnc4ccccc4c3)cc1)CC2 [tariquidar]
Mean tariquidar plasma concentration during the PET scan ([1]; continuous i.v. infusion, mean dose 5.9±1.0 mg/kg, mean±s.d.): 2,873±517 nmol/L | Mean tariquidar plasma concentration, times higher than in previous study ([1]; versus previous study ref 7): 2–3 times | Ki [2]: 8.5 nM | Subjects with mild adverse reactions most likely related to tariquidar ([3]; five healthy men, mean dose 5.9±1.0 mg/kg i.v. infusion): four out of five subjects | Dizziness, N subjects ([3]; of five subjects): 1 | Metallic taste in the mouth, N subjects ([3]; of five subjects): 3 | Fraction of unbound tariquidar in human plasma [4]: 0.0063±0.0021 | Increase in brain distribution of (R)-[^11C]verapamil ([5]; humans, tariquidar 6 mg/kg body weight): 129% | EC50 ([5]; read-out: Previously estimated EC50 of tariquidar in humans, enhancement of brain uptake of (R)-[^11C]verapamil): 868 nM | Increase in brain distribution of [^11C]N-desmethyl-loperamide [6]: 223%
